# Tested on: CD14+ circulating monocytes from ALS patients
# Assay: Effect of polyamine analogs on CD14+ monocytes in cultured PBMCs, anti-CD14 flow cytometry
# Type: cell-based, human
# Details: 1.0 μM SL-11047, 6 days incubation; 6 ALS patients vs 1 normal subject and 1 MS patient (FIG. 5)
# Source text: Peripheral blood mononuclear cells (PBMCs) are isolated from heparin-treated whole blood by layering over Percoll, density 1.087, (Pharmacia, Piscataway, N.J.) and followed by centrifugation at 800×g. The cells that collect at the Percoll/plasma interface are harvested and washed with 0.01 M phosphate-buffered saline (PBS). Isolated cells are then suspended in RPMI 1640 culture medium, with 10% fetal bovine serum, at a concentration of about 1×10^6 cells/ml. Cells are allocated to polyvinyl culture tubes at 1 ml/tube. A polyamine analog such as SL-11047 is added to 3 tubes, to achieve final concentrations of 1.0, 0.1, and 0.01 micromolar. A fourth tube, for control, receives no (zero) drug. […]
# On the […] of incubation, cells are removed from the incubator, washed with PBS and resuspended in PBS at 0.1 ml/tube. Detection of monocytes is detected by addition of fluorescein-conjugated anti-CD14 (DAKO Corp., Carpenteria, Calif.), for 20 minutes, at room temperature, protected from light. […]
# An experiment as described above was performed with CD14+ circulating monocytes from 6 ALS patients, 1 multiple sclerosis (MS) patient and 1 normal (non-ALS) control subject. In this experiment, the cells from a patient were incubated with or without polyamine analog SL-11047 for 6 days and survival of CD14+ cells was determined. […]
smiles,measurement,value
"CCNCCCNC/C=C\CNCCCNCC.Cl.Cl.Cl.Cl [SL-11047, N,N′-bis(3-ethylaminopropyl)-cis-but-2-ene-1,4-diamine tetrahydrochloride]",susceptibility to killing (percentage of CD14+ cells killed),substantially more susceptible to killing
